Ends that are not written are not given here.
Test system: UVB-irradiated human keratinocytes
Experiment: Survival of UVB-irradiated keratinocytes, MTS viability (Example 1)
Format: cell-based
Settings: for decreased survival rate: 45 mJ/cm2 UV
Protocol: Orsirtine™ ((SEQ ID No. 8) G-L-Y-D-N-L-E) and resveratrol, […], were tested for their ability to improve survival of UVB-irradiated human keratinocytes.
Normal human keratinocytes were cultured in Epilife Medium with Human Keratinocyte Growth Supplement. The cells were sub-cultured into 96-well plates (Costar). Keratinocytes were pretreated with resveratrol (25 μM) and Orsirtine (1%, 3%) by themselves, and in a complex of resveratrol (25 μM) and Orsirtine™ (3%). Keratinocytes were treated with the undiluted complex and with dilutions of 1:2, 1:4 and 1:8 (complex: Epilife media).
Keratinocytes were incubated with these treatments overnight at 37° C.; 5% CO2. After 24 hours, the treatment was aspirated and keratinocytes were washed once in D-PBS. 100 μl of D-PBS was added for the irradiation. The cells were subjected to UVB irradiation at 0, 45, 90 and 135 mJ/cm^2 UVB. After the irradiation, D-PBS was removed. Keratinocytes were post treated appropriately and incubated overnight at 37° C.; 5% CO2. The next day, cells were assayed for viability, utilizing MTS reagent (CellTiter96, Promega). Absorbance readings were taken on the SpectraMax190 spectrophotometer (Molecular Devices) at 490 nm following an approximate two hour incubation at 37° C.; 5% CO2.

[1] = Orsirtine 3% alone, listed as Orsirtine ™

Compound | decreased survival rate (just resveratrol (25 μM)) [%] | Increased survival after 90 mJ/cm^2 UV (Resveratrol 25 μM alone) [%] | Increased survival after 135 mJ/cm^2 UV (Resveratrol 25 μM alone) [%] | decreased survivability (UVB of 90 mJ/cm^2, 25 μM Resveratrol by itself) [%] | decreased survival rate (just Orsirtine 3%) [%] | Increased survival after 90 mJ/cm^2 UV (Orsirtine 1% alone) [%] | Increased survival after 135 mJ/cm^2 UV (Orsirtine 1% alone) [%] | Increased survival after 90 mJ/cm^2 UV (Orsirtine 3% alone) [%] | Increased survival after 135 mJ/cm^2 UV (Orsirtine 3% alone) [%] | Increased survival after 90 mJ/cm^2 UV [1] [%] | Increased survival after 135 mJ/cm^2 UV [1] [%]
Oc1ccc(/C=C\c2cc(O)cc(O)c2)cc1 [Resveratrol, 3,5,4′-trihydroxystilbene, reference compound] | 20 | −15 | 22 | 15 | – | – | – | – | – | – | –
GLYDNLE [Orsirtine™, peptide G-L-Y-D-N-L-E, INCI Water (and) Glycerin (and) Oryza Sativa (Rice) Extract, from ISP Vincience] | – | – | – | – | 8 | −17 | 5 | 11 | 26 | 11 | 26
